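96-well plates; 48 h exposure; 5 concentrations. Endpoints by linear interpolation between flanking doses. Not reached: highest tested concentration assigned. Here, GI50 denotes the concentration required for 50% inhibition of growth.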 Calls of active or inactive are those of the source. Cut-off read from the data, not from the text of the source: active = GI50 up to about 1.1 µM and inactive = higher. Where a SMILES comes first, the peptide text is derived from it. [ ]: non-standard residue; d: D form. The star is where a group is joined. Phe(2-OMe) = COc1ccccc1C[CH](N)C(=O)O; Cbz = O=C(OCc1ccccc1)*; OBn = c1ccc(CO*)cc1
Tests used:
Experiment in all cases: NCI anticancer screen, dose series, 48 h
MDA-N = tested on: MDA-N
IGROV-1 = tested on: IGROV-1
Malme-3M = tested on: Malme-3M
OVCAR-5 = tested on: OVCAR-5
NCI/ADR-RES = tested on: NCI/ADR-RES
SR = tested on: SR
COLO 205 = tested on: COLO 205
NCI-H23 = tested on: NCI-H23
MOLT-4 = tested on: MOLT-4
SF-295 = tested on: SF-295
ACHN = tested on: ACHN
BT-549 = tested on: BT-549
HOP-92 = tested on: HOP-92
Hs-578T = tested on: Hs-578T
OVCAR-4 = tested on: OVCAR-4
HL-60 = tested on: HL-60
CCRF-CEM = tested on: CCRF-CEM
K562 = tested on: K562
LOX IMVI = tested on: LOX IMVI
HCC 2998 = tested on: HCC 2998

Measured: GI50

Cn1c(-c2ccc(/N=N/Nc3ccc(-c4n[nH]c(=S)n4C)cc3)cc2)n[nH]c1=S
inactive: MDA-N > 100 µM | IGROV-1 10.2 µM | Malme-3M > 100 µM | OVCAR-5 > 100 µM | NCI/ADR-RES > 100 µM | SR 4.81 µM | COLO 205 56 µM | NCI-H23 7.8 µM | MOLT-4 3.08 µM | SF-295 18.3 µM | ACHN 1.99 µM | BT-549 3.9 µM | HOP-92 2.91 µM | Hs-578T 32.1 µM | OVCAR-4 > 100 µM | HL-60 4.6 µM | CCRF-CEM 3.98 µM | K562 2.82 µM | LOX IMVI 16.4 µM

O=C(Cn1c2ccc(Br)cc2c2nc3ccccc3nc21)NC1CCCCC1
inactive: MDA-N > 100 µM | IGROV-1 > 100 µM | Malme-3M > 100 µM | OVCAR-5 > 100 µM | NCI/ADR-RES > 100 µM | COLO 205 > 100 µM | NCI-H23 > 100 µM | MOLT-4 > 100 µM | SF-295 > 100 µM | ACHN > 100 µM | BT-549 > 100 µM | HOP-92 51.1 µM | Hs-578T 43.3 µM | OVCAR-4 > 100 µM | HCC 2998 > 100 µM | K562 > 100 µM | LOX IMVI > 100 µM

Clc1nc(NCCc2ccccc2)c2ncn(-c3ccccc3)c2n1
inactive: MDA-N 18.5 µM | IGROV-1 40.8 µM | Malme-3M 21.1 µM | OVCAR-5 37.9 µM | NCI/ADR-RES 20.6 µM | COLO 205 23.2 µM | NCI-H23 25.6 µM | MOLT-4 22 µM | SF-295 25.3 µM | ACHN 29.4 µM | BT-549 23.1 µM | Hs-578T 24.4 µM | OVCAR-4 14.1 µM | HCC 2998 17.1 µM | K562 25.5 µM | LOX IMVI 21.3 µM

C=C(C)CCN(C(=O)OC(C)(C)C)c1cc(C(C)C)co1
inactive: MDA-N 95.7 µM | IGROV-1 > 100 µM | OVCAR-5 > 100 µM | NCI/ADR-RES 24.2 µM | SR 33.5 µM | COLO 205 58.2 µM | NCI-H23 54 µM | MOLT-4 30.3 µM | SF-295 51.4 µM | ACHN 73.6 µM | BT-549 12.2 µM | HOP-92 11.4 µM | OVCAR-4 59.2 µM | HL-60 11.8 µM | CCRF-CEM 25.6 µM | HCC 2998 52 µM | K562 34.5 µM | LOX IMVI 28 µM

O=c1[nH]nc(Cc2ccccc2)n1/N=C/c1cccs1
inactive: MDA-N > 100 µM | Malme-3M > 100 µM | OVCAR-5 > 100 µM | NCI/ADR-RES > 100 µM | COLO 205 > 100 µM | NCI-H23 > 100 µM | MOLT-4 80.7 µM | SF-295 > 100 µM | ACHN > 100 µM | BT-549 > 100 µM | Hs-578T > 100 µM | OVCAR-4 > 100 µM | CCRF-CEM > 100 µM | HCC 2998 > 100 µM | K562 > 100 µM | LOX IMVI > 100 µM

Clc1cc(-c2ccccc2)nc2ccccc12
inactive: MDA-N 26 µM | IGROV-1 15.1 µM | Malme-3M 38 µM | OVCAR-5 > 100 µM | NCI/ADR-RES 33.6 µM | COLO 205 19.5 µM | NCI-H23 51.6 µM | MOLT-4 22.1 µM | SF-295 38.4 µM | ACHN 38.5 µM | BT-549 18.8 µM | HOP-92 36.8 µM | Hs-578T 30.1 µM | OVCAR-4 20.7 µM | HL-60 22.5 µM | CCRF-CEM 23.8 µM | K562 37.8 µM | LOX IMVI 40 µM

CC(NNC(=O)c1ccc[n+]([BH2-]C#N)c1)c1ccccc1 (stereo not drawn)
inactive: MDA-N > 100 µM | IGROV-1 > 100 µM | Malme-3M > 100 µM | OVCAR-5 > 100 µM | NCI/ADR-RES > 100 µM | COLO 205 > 100 µM | NCI-H23 > 100 µM | MOLT-4 38.3 µM | SF-295 > 100 µM | ACHN > 100 µM | BT-549 > 100 µM | HOP-92 > 100 µM | OVCAR-4 > 100 µM | HL-60 86.1 µM | CCRF-CEM 78.7 µM | HCC 2998 > 100 µM | K562 > 100 µM | LOX IMVI > 100 µM

COC(=O)C(Cc1ccccc1OC)NC(=O)C(CC(=O)OCc1ccccc1)NC(=O)OCc1ccccc1 (stereo not drawn) (Cbz-Asp(OBn)-[Phe(2-OMe)]-OMe; configuration not given here)
inactive: MDA-N 95.7 µM | IGROV-1 > 100 µM | Malme-3M > 100 µM | OVCAR-5 > 100 µM | SR 27.9 µM | COLO 205 46.3 µM | NCI-H23 > 100 µM | MOLT-4 33.7 µM | ACHN > 100 µM | BT-549 > 100 µM | HOP-92 > 100 µM | Hs-578T > 100 µM | HL-60 34.5 µM | CCRF-CEM 38 µM | HCC 2998 > 100 µM | K562 61.5 µM
